Laboratory results reported in patent US6440964B1, “Compositions and methods for treating ophthalmic and otic infections” (priority 1998, dated 2002).
Converted amounts (≈) assume the structure as drawn. Where two headings read alike, the source gives them in different places.

Tests used:
[1] = system: Microbacterium otitidis; assay: In vitro activity (MIC) by agar and broth dilution methods against clinical isolates; assay type: cell-based; details: for MIC: read-out: minimum inhibitory concentration (MIC)
Experimental: (§1) The activity levels were determined as MIC (minimum inhibitory concentration) values. In order to compare the activity of the compounds of the present invention to other antibiotics, MIC values for representatives quinolones, aminoglycosides, β-lactams and other types of antibiotics were also determined. […] The MCC numbers (e.g., “MCC 10647”) represent separate clinical isolates of the two Microbacterium species tested.

[2] = system: Microbacterium alconae; assay: as above; assay type: cell-based; details: for MIC: read-out: minimum inhibitory concentration (MIC)
Experimental: as §1

[3] = system: S. aureus/methicillin sensitive; assay: MIC90 of Moxifloxacin for bacteria associated with ophthalmic, otic and nasal infections; assay type: cell-based
Source text: (§2) The concentrations of the antibiotics of formula (I) in the compositions of the present invention will vary depending on the intended use of the compositions (e.g., treatment of existing infections or prevention of post-surgical infections), and the relative antimicrobial activity of the specific antibiotic selected. The antimicrobial activity of antibiotics is generally expressed as the minimum concentration required to inhibit the growth of a specified pathogen. This concentration is also referred to as the “minimum inhibitory concentration” or “MIC”. The term “MIC90” refers to the minimum concentration of antibiotic required to inhibit the growth of ninety percent (90%) of the strains of a species. The concentration of an antibiotic required to totally kill a specified bacteria is referred to as the “minimum bactericidal concentration” or “MBC”.

[4] = system: H. influenzae/β-lactamase positive; assay: as above; assay type: cell-based
Source text: as §2

[5] = system: S. aureus/methicillin resistant; assay: as above; assay type: cell-based
Source text: as §2

[6] = system: P. aeruginosa; assay: as above; assay type: cell-based
Source text: as §2

[7] = system: S. pneumoniae/penicillin sensitive; assay: as above; assay type: cell-based
Source text: as §2

[8] = system: S. epidermidis/methicillin resistant; assay: as above; assay type: cell-based
Source text: as §2

[9] = system: S. pneumoniae/penicillin resistant; assay: as above; assay type: cell-based
Source text: as §2

[10] = system: H influenzae/βlactamase negative; assay: as above; assay type: cell-based
Source text: as §2

[11] = system: S. epidermidis/methicillin sensitive; assay: as above; assay type: cell-based
Source text: as §2

[12] = system: S. aureus/quinolone resistant; assay: as above; assay type: cell-based
Source text: as §2

[13] = system: M. otitidis; assay: as above; assay type: cell-based, Microbacterium otitidis
Source text: as §2

[14] = system: M. alconae; assay: as above; assay type: cell-based, Microbacterium alconae
Source text: as §2

Compound	MIC ([1]; clinical isolate MCC 10647) [µg/mL]	MIC ([1]; clinical isolate MCC 10810) [µg/mL]	MIC ([1]; clinical isolate MCC 10990) [µg/mL]	MIC ([1]; clinical isolate MCC 11495) [µg/mL]	MIC ([1]; clinical isolate MCC 11676) [µg/mL]	MIC ([2]; clinical isolate MCC 11316) [µg/mL]	MIC ([2]; clinical isolate MCC 11558) [µg/mL]	MIC ([2]; clinical isolate MCC 11639) [µg/mL]	MIC ([2]; clinical isolate MCC 11653) [µg/mL]	MIC ([2]; clinical isolate MCC 11699) [µg/mL]	further results
CCC[C@@H]1C[C@@H](C(=O)N[C@@H]([C@H]2O[C@H](SC)[C@H](O)[C@@H](O)[C@H]2O)[C@H](C)Cl)N(C)C1 [Clindamycin]	0.03 (≈ 0.0706 µM)	0.03 (≈ 0.0706 µM)	0.03 (≈ 0.0706 µM)	0.03 (≈ 0.0706 µM)	0.03 (≈ 0.0706 µM)	4 (≈ 9.41 µM)	4 (≈ 9.41 µM)	4 (≈ 9.41 µM)	4 (≈ 9.41 µM)	4 (≈ 9.41 µM)	–
NC[C@H]1O[C@H](O[C@H]2[C@H](O)[C@@H](O[C@H]3O[C@H](CO)[C@@H](O)[C@H](N)[C@H]3O)[C@H](N)C[C@@H]2N)[C@H](N)C[C@@H]1O [Tobramycin]	32 (≈ 68.4 µM)	4 (≈ 8.56 µM)	4 (≈ 8.56 µM)	4 (≈ 8.56 µM)	16 (≈ 34.2 µM)	16 (≈ 34.2 µM)	16 (≈ 34.2 µM)	16 (≈ 34.2 µM)	16 (≈ 34.2 µM)	16 (≈ 34.2 µM)	–
CC1COc2c(N3CCN(C)CC3)c(F)cc3c(=O)c(C(=O)O)cn1c23 (stereo not shown) [Ofloxacin]	16 (≈ 44.3 µM)	32 (≈ 88.6 µM)	8 (≈ 22.1 µM)	16 (≈ 44.3 µM)	8 (≈ 22.1 µM)	4 (≈ 11.1 µM)	4 (≈ 11.1 µM)	4 (≈ 11.1 µM)	4 (≈ 11.1 µM)	4 (≈ 11.1 µM)	–
Neomycin	–	–	–	–	–	–	–	–	–	–	minimum inhibitory concentration (MIC) ([1]; clinical isolate MCC 10647): 8.0 micrograms per milliliter; minimum inhibitory concentration (MIC) ([1]; clinical isolate MCC 10810): 2.0 micrograms per milliliter; minimum inhibitory concentration (MIC) ([1]; clinical isolate MCC 10990): 2.0 micrograms per milliliter; minimum inhibitory concentration (MIC) ([1]; clinical isolate MCC 11495): 8.0 micrograms per milliliter; minimum inhibitory concentration (MIC) ([1]; clinical isolate MCC 11676): 2.0 micrograms per milliliter; minimum inhibitory concentration (MIC) ([2]; clinical isolate MCC 11316): 1.0 micrograms per milliliter; minimum inhibitory concentration (MIC) ([2]; clinical isolate MCC 11558): 1.0 micrograms per milliliter; minimum inhibitory concentration (MIC) ([2]; clinical isolate MCC 11639): 1.0 micrograms per milliliter; minimum inhibitory concentration (MIC) ([2]; clinical isolate MCC 11653): 1.0 micrograms per milliliter; minimum inhibitory concentration (MIC) ([2]; clinical isolate MCC 11699): 1.0 micrograms per milliliter
O=C(N[C@H](CO)[C@H](O)c1ccc([N+](=O)[O-])cc1)C(Cl)Cl [Chloramphenicol]	1 (≈ 3.09 µM)	1 (≈ 3.09 µM)	1 (≈ 3.09 µM)	1 (≈ 3.09 µM)	1 (≈ 3.09 µM)	16 (≈ 49.5 µM)	16 (≈ 49.5 µM)	16 (≈ 49.5 µM)	16 (≈ 49.5 µM)	16 (≈ 49.5 µM)	–
CC[C@H]1OC(=O)[C@H](C)[C@@H](O[C@H]2C[C@@](C)(OC)[C@@H](O)[C@H](C)O2)[C@H](C)[C@@H](O[C@@H]2O[C@H](C)C[C@H](N(C)C)[C@H]2O)[C@](C)(O)C[C@@H](C)C(=O)[C@H](C)[C@@H](O)[C@]1(C)O [Erythromycin]	0.03 (≈ 0.0409 µM)	0.03 (≈ 0.0409 µM)	0.03 (≈ 0.0409 µM)	0.03 (≈ 0.0409 µM)	0.03 (≈ 0.0409 µM)	1 (≈ 1.36 µM)	2 (≈ 2.73 µM)	2 (≈ 2.73 µM)	0.5 (≈ 0.681 µM)	0.5 (≈ 0.681 µM)	–
Gentamicin	–	–	–	–	–	–	–	–	–	–	minimum inhibitory concentration (MIC) ([1]; clinical isolate MCC 10647): 8.0 micrograms per milliliter; minimum inhibitory concentration (MIC) ([1]; clinical isolate MCC 10810): 4.0 micrograms per milliliter; minimum inhibitory concentration (MIC) ([1]; clinical isolate MCC 10990): 4.0 micrograms per milliliter; minimum inhibitory concentration (MIC) ([1]; clinical isolate MCC 11495): 16 micrograms per milliliter; minimum inhibitory concentration (MIC) ([1]; clinical isolate MCC 11676): 4.0 micrograms per milliliter; minimum inhibitory concentration (MIC) ([2]; clinical isolate MCC 11316): 2.0 micrograms per milliliter; minimum inhibitory concentration (MIC) ([2]; clinical isolate MCC 11558): 2.0 micrograms per milliliter; minimum inhibitory concentration (MIC) ([2]; clinical isolate MCC 11639): 2.0 micrograms per milliliter; minimum inhibitory concentration (MIC) ([2]; clinical isolate MCC 11653): 2.0 micrograms per milliliter; minimum inhibitory concentration (MIC) ([2]; clinical isolate MCC 11699): 2.0 micrograms per milliliter
CN(C)[C@@H]1C(O)=C(C(N)=O)C(=O)[C@@]2(O)C(O)=C3C(=O)c4c(O)cccc4[C@@](C)(O)[C@H]3C[C@@H]12 [Tetracycline]	1 (≈ 2.25 µM)	1 (≈ 2.25 µM)	1 (≈ 2.25 µM)	1 (≈ 2.25 µM)	1 (≈ 2.25 µM)	1 (≈ 2.25 µM)	1 (≈ 2.25 µM)	1 (≈ 2.25 µM)	1 (≈ 2.25 µM)	1 (≈ 2.25 µM)	–
Polymyxin B	–	–	–	–	–	–	–	–	–	–	minimum inhibitory concentration (MIC) ([1]; clinical isolate MCC 10647): 1040 micrograms per milliliter; minimum inhibitory concentration (MIC) ([1]; clinical isolate MCC 10810): 260 micrograms per milliliter; minimum inhibitory concentration (MIC) ([1]; clinical isolate MCC 10990): 260 micrograms per milliliter; minimum inhibitory concentration (MIC) ([1]; clinical isolate MCC 11495): 1040 micrograms per milliliter; minimum inhibitory concentration (MIC) ([1]; clinical isolate MCC 11676): 16 micrograms per milliliter; minimum inhibitory concentration (MIC) ([2]; clinical isolate MCC 11316): 32.5 micrograms per milliliter; minimum inhibitory concentration (MIC) ([2]; clinical isolate MCC 11558): 32.5 micrograms per milliliter; minimum inhibitory concentration (MIC) ([2]; clinical isolate MCC 11639): 16 micrograms per milliliter; minimum inhibitory concentration (MIC) ([2]; clinical isolate MCC 11653): 16 micrograms per milliliter; minimum inhibitory concentration (MIC) ([2]; clinical isolate MCC 11699): 16 micrograms per milliliter
Moxifloxacin	–	–	–	–	–	–	–	–	–	–	MIC90 [3]: 0.13 µg/mL; MIC90 [4]: 0.06 µg/mL; MIC90 [5]: 4.0 µg/mL; MIC90 [6]: 8.0 µg/mL; MIC90 [7]: 0.25 µg/mL; MIC90 [8]: 4.0 µg/mL; MIC90 [9]: 0.25 µg/mL; MIC90 [10]: 0.06 µg/mL; MIC90 [11]: 0.25 µg/mL; MIC90 [12]: 4.0 µg/mL; MIC90 [13]: 2.0 µg/mL; MIC90 [14]: 0.25 µg/mL
Cc1onc(-c2ccccc2)c1C(=O)N[C@@H]1C(=O)N2[C@@H]1SC(C)(C)[C@@H]2C(=O)O [Oxacillin]	2 (≈ 4.98 µM)	4 (≈ 9.96 µM)	2 (≈ 4.98 µM)	4 (≈ 9.96 µM)	2 (≈ 4.98 µM)	8 (≈ 19.9 µM)	16 (≈ 39.9 µM)	32 (≈ 79.7 µM)	32 (≈ 79.7 µM)	32 (≈ 79.7 µM)	–
